One series can be described thus: in vitro. The following applies: rat, gh3-tre-luc cells, AC50 (uM) modified / 1000.
Broadly, the CC50 is the concentration at which the toxic effect on the cells reaches its halfway point. A higher CC50 goes with better tolerance by the cells. `COc1cccc(Br)c1` [1-Bromo-3-methoxybenzene] gave a CC50 at 24 h of over 90 µM.
On the same count and under the same terms, under `CCc1ccc(Br)cc1` [1-Bromo-4-ethylbenzene] stands over 90 µM; under `Fc1ccc(Br)cc1` [1-Bromo-4-fluorobenzene], over 90 µM; under `COc1ccc(Br)c(C)c1` [1-Bromo-4-methoxy-2-methylbenzene], over 90 µM.
The compound `FC(F)(F)C(F)(F)C(F)(F)C(F)(F)C(F)(F)C(F)(F)C(F)(F)C(F)(F)Br` [1-Bromoheptadecafluorooctane] had a half-maximal cytotoxic concentration (CC50) at 24 h of over 50 µM.
In turn, `CCCCCCCCCCCCCCCCCBr` [1-Bromoheptadecane] showed a CC50 at 24 h of over 20 µM.
`CCCCCCCCCCCCCCCCBr` [1-Bromohexadecane] registered a CC50 at 24 h of over 30 µM.
Regarding `CCCCCCCCBr` [1-Bromooctane], the CC50 at 24 h was over 90 µM.
Still for that read-out and setting: under `CCCCCCCCCCCCCCCBr` [1-Bromopentadecane] stands over 50 µM; under `CCCCCBr` [1-Bromopentane], over 100 µM; under `CCCCCCCCCCCCCCBr` [1-Bromotetradecane], over 100 µM.
Still for that read-out and setting: under `CCCCCCCCCCCCCBr` [1-Bromotridecane] stands over 90 µM; under `CCCCCCCCCCCBr` [1-Bromoundecane], over 50 µM; under `CCCCS` [1-Butanethiol], over 90 µM.
Still for that read-out and setting: under `CCCCO` [1-Butanol] stands over 90 µM; under `CCCCOC(=O)C(C)OC(=O)CCC` (stereo not drawn) [1-Butoxy-1-oxopropan-2-yl butanoate], over 90 µM; under `CCCCOCC(C)O` (stereo not drawn) [1-Butoxy-2-propanol], over 90 µM.
Turning to `CCCC[N+]1(C)CCCCC1` [1-Butyl-1-methylpiperidinium tetrafluoroborate], the CC50 at 24 h was over 90 µM.
On the same count and under the same terms, to `CCCC[N+]1(C)CCCC1` [1-Butyl-1-methylpyrrolidinium hexafluorophosphate] belongs over 90 µM.
The same measure, in the same setting: to `CCCCn1cc[n+](C)c1C` [1-Butyl-2,3-dimethylimidazolium chloride] belongs over 90 µM; to `CCCC[n+]1ccccc1C` [1-Butyl-2-methylpyridinium bromide], over 90 µM; to `CCCC[n+]1cccc(C)c1` [1-Butyl-3-methylpyridinium bromide], over 90 µM.
For the compound `CCCC[n+]1ccccc1` [1-Butylpyridinium hexafluorophosphate], the CC50 at 24 h is over 90 µM.
On the same count and under the same terms, under `CCC(Cl)[N+](=O)[O-]` (stereo not drawn) [1-Chloro-1-nitropropane] stands over 100 µM.
The same measure, in the same setting: under `Fc1cccc(Cl)c1CCl` [1-Chloro-2-(chloromethyl)-3-fluorobenzene] stands over 90 µM.
Still for that read-out and setting: under `Cc1c(Cl)cccc1[N+](=O)[O-]` [1-Chloro-2-methyl-3-nitrobenzene] stands over 90 µM; under `O=[N+]([O-])c1cc(C(F)(F)F)ccc1Cl` [1-Chloro-2-nitro-4-(trifluoromethyl)benzene], over 90 µM.
Compound `O=[N+]([O-])c1cccc(Cl)c1` [1-Chloro-3-nitrobenzene] displayed a CC50 at 24 h of over 90 µM.
Compound `FC(F)(F)c1ccc(Cl)cc1` [1-Chloro-4-(trifluoromethyl)benzene] returned a CC50 at 24 h of over 90 µM.
Still for that read-out and setting: under `CCCCCCCCCCCl` [1-Chlorodecane] stands over 90 µM.
The same measure, in the same setting: under `CCCCCCCCCCCCCCCCCl` [1-Chlorohexadecane] stands over 20 µM; under `CCCCCCCCCCl` [1-Chlorononane], over 90 µM.
On the same count and under the same terms, under `CC(C)(C)C(=O)CCl` [1-Chloropinacolone] stands over 90 µM; under `CC(O)C1CCCCC1` (stereo not drawn) [1-Cyclohexylethanol], over 90 µM; under `O=C1CCCN1C1CCCCC1` [1-Cyclohexylpyrrolidin-2-one], over 90 µM.
Compound `CCCCCCCCCCN` [1-Decanamine] yielded a CC50 at 24 h of over 90 µM.
On the same count and under the same terms, under `CCCCCCCCCCO` [1-Decanol] stands over 90 µM.
Consider `C=CCCCCCCCC` [1-Decene], for which the CC50 at 24 h was over 90 µM.
On to `CCCCCCCCCCCCCCCCCCCCCCO` [1-Docosanol], for which the CC50 at 24 h is over 50 µM.
The compound `CCCCCCCCCCCCS` [1-Dodecanethiol] showed a CC50 at 24 h of over 90 µM.
The compound `CCCCCCCCCCCCO` [1-Dodecanol] returned a CC50 at 24 h of over 90 µM.
The same measure, in the same setting: under `C=CCCCCCCCCCC` [1-Dodecene] stands over 90 µM; under `CCCCCCCCCCCCN1CCCC1=O` [1-Dodecyl-2-pyrrolidinone], 49.6 µM.
The same measure, in the same setting: to `C=CN1CCCCCC1=O` [1-Ethenylazepan-2-one] belongs over 90 µM; to `CCOCC(C)O` (stereo not drawn) [1-Ethoxy-2-propanol], over 90 µM; to `CCOc1ccc([N+](=O)[O-])cc1` [1-Ethoxy-4-nitrobenzene], 39.1 µM.
Compound `CC[N+]1(C)CCCC1` [1-Ethyl-1-methylpyrrolidinium hexafluorophosphate] gave a CC50 at 24 h of over 90 µM.
Same read-out and setting: under `CCn1cc[n+](C)c1C` [1-Ethyl-2,3-dimethylimidazolium bromide] stands over 90 µM; under `CCN1CCCC1=O` [1-Ethyl-2-pyrrolidinone], over 90 µM; under `CCn1cc[n+](C)c1` [1-Ethyl-3-methylimidazolium thiocyanate], over 90 µM.
On the same count and under the same terms, under `c1coc(Cn2cccc2)c1` [1-Furfurylpyrrole] stands over 90 µM.
The same measure, in the same setting: to `CCCCCCCO` [1-Heptanol] belongs over 90 µM.
With `CCCCCCCCCCCCCCCCO` [1-Hexadecanol], the CC50 at 24 h is over 90 µM.
Same read-out and setting: under `C=CCCCCCCCCCCCCCC` [1-Hexadecene] stands over 20 µM; under `CCCCCCO` [1-Hexanol], over 90 µM; under `C=CCCCC` [1-Hexene], over 100 µM.
The same measure, in the same setting: to `CCCCCCn1cc[n+](C)c1` [1-Hexyl-3-methylimidazolium trifluoromethanesulfonate] belongs over 90 µM; to `CCCCCC[n+]1ccccc1` [1-Hexylpyridinium bromide], over 90 µM; to `On1nnc2ccccc21` [1-Hydroxybenzotriazole], over 90 µM.
Still for that read-out and setting: under `Oc1ccc2ccc3cccc4ccc1c2c34` [1-Hydroxypyrene] stands over 90 µM.
`O=[N+]([O-])c1cccc(I)c1` [1-Iodo-3-nitrobenzene] came in with a CC50 at 24 h of over 90 µM.
Take `CCCCCCCCCCCCI` [1-Iodododecane]: the CC50 at 24 h was over 90 µM.
In turn, `CCCCCCCCCI` [1-Iodononane] gave a CC50 at 24 h of over 90 µM.
The same measure, in the same setting: to `COc1ccccc1[N+](=O)[O-]` [1-Methoxy-2-nitrobenzene] belongs over 90 µM.

Staying with this series, now noted: rat, gh3-tre-luc cells, AC50 (uM) modified / 1000, Tox21_110001=Tox21_111072; viability, 1 nM T3 present, 24 h.
Regarding `CCCCCl` [1-Chlorobutane], the CC50 at 24 h was over 50 µM.

The same series, now with this note: rat, gh3-tre-luc cells, AC50 (uM) modified / 1000, Tox21_110001=Tox21_200456; viability, 1 nM T3 present, 24 h.
In the case of `CCCCCCCCCCCCCCCl` [1-Chlorotetradecane], the CC50 at 24 h was over 90 µM.

Staying with this series, now noted: rat, gh3-tre-luc cells, AC50 (uM) modified / 1000, Tox21_110001=Tox21_200619; viability, 1 nM T3 present, 24 h.
`CCCBr` [1-Bromopropane] showed a CC50 at 24 h of over 90 µM.

The same series, now with this note: rat, gh3-tre-luc cells, AC50 (uM) modified / 1000, Tox21_110001=Tox21_200823; viability, 1 nM T3 present, 24 h.
`Clc1cccc2ccccc12` [1-Chloronaphthalene] came in with a CC50 at 24 h of over 90 µM.

The series is the same for the next values; noted with them: rat, gh3-tre-luc cells, AC50 (uM) modified / 1000, Tox21_110001=Tox21_200865; viability, 1 nM T3 present, 24 h.
Take `CCCCCl` [1-Chlorobutane]: the CC50 at 24 h is over 90 µM.

The series is the same for the next values; noted with them: rat, gh3-tre-luc cells, AC50 (uM) modified / 1000, Tox21_110001=Tox21_200998; viability, 1 nM T3 present, 24 h.
Compound `CC(O)CCl` (stereo not drawn) [1-Chloro-2-propanol, technical grade (~75% 1-chloro-2-propanol; ~25% 2-chloro-1-propanol)] had a CC50 at 24 h of over 90 µM.

The series is the same for the next values; noted with them: rat, gh3-tre-luc cells, AC50 (uM) modified / 1000, Tox21_110001=Tox21_201715; viability, 1 nM T3 present, 24 h.
Regarding `CCCCCCCCCl` [1-Chlorooctane], the CC50 at 24 h is over 90 µM.

The series is the same for the next values; noted with them: rat, gh3-tre-luc cells, AC50 (uM) modified / 1000, Tox21_110001=Tox21_201726; viability, 1 nM T3 present, 24 h.
With `ClCCBr` [1-Chloro-2-bromoethane], the CC50 at 24 h was over 90 µM.

The same series, now with this note: rat, gh3-tre-luc cells, AC50 (uM) modified / 1000, Tox21_110001=Tox21_201790; viability, 1 nM T3 present, 24 h.
As for `CCCCCCCCCCCCCl` [1-Chlorododecane], the CC50 at 24 h was over 90 µM.

Still in this series, the particulars now being: rat, gh3-tre-luc cells, AC50 (uM) modified / 1000, Tox21_110001=Tox21_202151; viability, 1 nM T3 present, 24 h.
As for `CCN(N=O)C(N)=O` [1-Ethyl-1-nitrosourea], the CC50 at 24 h is over 90 µM.

Staying with this series, now noted: rat, gh3-tre-luc cells, AC50 (uM) modified / 1000, Tox21_110001=Tox21_202291; viability, 1 nM T3 present, 24 h.
In turn, `O=[N+]([O-])c1ccc(Cl)cc1` [1-Chloro-4-nitrobenzene] returned a CC50 at 24 h of over 90 µM.

Staying with this series, now noted: rat, gh3-tre-luc cells, AC50 (uM) modified / 1000, Tox21_110001=Tox21_202719; viability, 1 nM T3 present, 24 h.
`CCCCCCBr` [1-Bromohexane] gave a CC50 at 24 h of over 100 µM.

The same series, now with this note: rat, gh3-tre-luc cells, AC50 (uM) modified / 1000, Tox21_110001=Tox21_202862; viability, 1 nM T3 present, 24 h.
Turning to `CCCCCCI` [1-Iodohexane], the CC50 at 24 h was over 90 µM.

The same series, now with this note: rat, gh3-tre-luc cells, AC50 (uM) modified / 1000, Tox21_110001=Tox21_202866; viability, 1 nM T3 present, 24 h.
Consider `ClCCCCBr` [1-Bromo-4-chlorobutane], for which the CC50 at 24 h is over 90 µM.

The same series, now with this note: rat, gh3-tre-luc cells, AC50 (uM) modified / 1000, Tox21_110001=Tox21_302046; viability, 1 nM T3 present, 24 h.
With `CCCCCCCCCCCCBr` [1-Bromododecane], the CC50 at 24 h is over 90 µM.

The same series, now with this note: rat, gh3-tre-luc cells, AC50 (uM) modified / 1000, Tox21_110001=Tox21_302106; viability, 1 nM T3 present, 24 h.
`C#CC1(O)CCCCC1` [1-Ethynylcyclohexanol] displayed a CC50 at 24 h of over 90 µM.

The series is the same for the next values; noted with them: rat, gh3-tre-luc cells, AC50 (uM) modified / 1000, Tox21_110001=Tox21_302749; viability, 1 nM T3 present, 24 h.
On to `CCN(N=O)C(N)=O` [1-Ethyl-1-nitrosourea], for which the CC50 at 24 h was over 60 µM.

The values above are taken from publication PMC6792352, “Limited Chemical Structural Diversity Found to Modulate Thyroid Hormone Receptor in the Tox21 Chemical Library” (Environmental Health Perspectives, 2019).
